One test addresses α4β7 integrin (Homo sapiens (Human), UniProt P13612+P26010). Description: Integrin Adhesion Assay: Protocol 4 (MAdCAM-coated plate, RPMI-8866 cells with stable LOF mutation of the ITGB1 gene). It is filed as cell-based. To be noted: RPMI-8866 cells with stable LOF mutation of the ITGB1 gene; read-out: Mean IC50 α4β7 KO^a. As to the method:
(§1) Integrin Adhesion Assay Using Genetically Modified Cells Generating Stable Cell Lines with ITGB1 or ITGB7 Knockout (Protocol 4 and Protocol 5)
(§2) To obtain subclones of the RPMI-8866 cell line (Sigma-Aldrich, St. Louis, MO) that were individually deficient in either integrin β1 or integrin β 7, CRISPR/Cas9 technology was employed (PMID: 30108345). Specifically, a Neon™ Transfection System System 10 μL Kit and the Neon™ Transfection device (both from ThermoFisher Scientific) were used.
(§3) The protocol was performed following the manufacturer instructions, described in https://www.thermofisher.com/document-connect/document-connect.html?url=https % 3A%2F%2F assets.thermofisher.com%2FTFS-Assets%2FLSG%2Fmanuals%2FMAN0017066_TrueCut Cas9_Protein_v2_UG.pdf, which is incorporated by reference herein in its entirety.
(§4) RPMI-8866 cells were transferred to a flask the day before transfection, at a confluence of 5×10^5 cells/mL. The cells were washed with PBS and resuspended in buffer R (Neon™ Transfection System, Invitrogen) to 2×10^5 cells/10 uL for each reaction. The TrueCut™ HiFi Cas9 Protein (1250 ng per reaction) was mixed with TrueGuide™ sgRNA (7.5 pmoles each/pool of 3 sequences, table 1) (ThermoFisher Scientific). This mix was combined with the RPMI-8866 cells and electroporated on the Neon system at 1700V/20 ms/1 pulse. Transfected cells were allowed to recover in 500 μL pre-warmed cRMPI media (RPMI-1640 media with 10% FBS, 100 U/ml Penicillin-Streptomycin) at 37° C., 5% CO2 for 24 hours. At that time, an extra 500 μL of pre-warmed cRMPI media was added, and cells were incubated for another 24 hours.
(§5) For flow cytometry analysis, 100 μL of the transfected cells were collected and stained with anti-itga4 (Clone: 9F10, PE, BD Pharmingen™), anti-itgb 1 (Clone: (TS2/16), Super Bright 436, eBioscience), anti-itgb7 (Clone: FIB504, Brilliant Violet 650, BD Pharmingen™) and viability dye (LIVE/DEAD™ Fixable Green Dead Cell Stain, Invitrogen™). An Attune NxT Flow Cytometer was used to analyze the CRISPR-transfected cells. The flow cytometry results were analyzed using FlowJo™ v10.8.1 Software (BD Life Sciences). Fluorescence minus one (FMO) controls were used to select appropriate gates for data analysis.
(§6) To generate an individual clones of cells deficient in either ITGB7 or ITGB1 by limiting dilution assay, the transfected cells were resuspended at 5 cells/mL and seeded in 384 well plates. Outgrowth of clones was monitored using a microscope, and 24 clones were transferred for expansion. Expression of either integrin was verified by flow cytometry in each of the clones. One clone of each integrin b7 or the integrin b1 knockout was chosen, expanded and aliquots were frozen in vapor phase liquid nitrogen.
Integrin Adhesion Assay: Protocol 4
(§7) MAdCAM (R&D Systems, 0.1 ug) was diluted in 50 μL PBS, added to each well of an opaque ELISA plate (Thermo), and incubated overnight at 4° C. Coated plates were washed once with PBS and then blocked with 200 μL of assay buffer (10 mM HEPES, 150 mM NaCl, 1 mM MnCl2, 0.1 mM CaCl2), 1% BSA) for 1 hour at 37° C. and 5% CO2. After incubation, buffer was aspirated from the plates and 50 μL of fresh assay buffer was added. Compounds were added using a compounds dispenser (Tecan), and DMSO concentration was normalized to 1% across each plate. 50 μL of RPMI-8866 cells with a stable loss of function (LOF) mutation of the ITGB1 gene (2×10^6 per mL) were added to each well and the plates were incubated for 1 hour at 37° C. at a CO2 concentration of 5%. After incubation, plates were allowed to cool to RT for 10 minutes before being washed four times in assay buffer by an automated plate washer (BioTek). After washing, 100 μL of a 1:1 mixture of assay buffer and CellTiter GLO 2.0 reagent (Promega) were added to each well. Plates were mixed for 2 minutes at 1000 rpm and then allowed to incubate an additional 10 minutes before reading out luminescence on a Tecan Spark plate reader. […]

For a further test, the target named is α4β1 integrin (Homo sapiens (Human), UniProt P05556+P13612). Description: Integrin Adhesion Assay: Protocol 5 (VCAM-coated plate, RPMI-8866 cells with stable LOF mutation of the ITGB7 gene). Type of test: cell-based. Particulars: RPMI-8866 cells with stable LOF mutation of the ITGB7 gene; read-out: Mean IC50 α4β1 KO^b. As to the method:
as §1, §2, §3, §4, §5, §6
Integrin Adhesion Assay: Protocol 5
as §7, with “VCAM” for “MAdCAM”, “by” for “using a”, “(Tecan)” for “(Tecan),”, “LOF” for “loss of function (LOF)”, “ITGB7” for “ITGB1”, “and 5% CO2.” for “at a CO2 concentration of 5%.”

α4β1 integrin, sequence (P13612 34-1032): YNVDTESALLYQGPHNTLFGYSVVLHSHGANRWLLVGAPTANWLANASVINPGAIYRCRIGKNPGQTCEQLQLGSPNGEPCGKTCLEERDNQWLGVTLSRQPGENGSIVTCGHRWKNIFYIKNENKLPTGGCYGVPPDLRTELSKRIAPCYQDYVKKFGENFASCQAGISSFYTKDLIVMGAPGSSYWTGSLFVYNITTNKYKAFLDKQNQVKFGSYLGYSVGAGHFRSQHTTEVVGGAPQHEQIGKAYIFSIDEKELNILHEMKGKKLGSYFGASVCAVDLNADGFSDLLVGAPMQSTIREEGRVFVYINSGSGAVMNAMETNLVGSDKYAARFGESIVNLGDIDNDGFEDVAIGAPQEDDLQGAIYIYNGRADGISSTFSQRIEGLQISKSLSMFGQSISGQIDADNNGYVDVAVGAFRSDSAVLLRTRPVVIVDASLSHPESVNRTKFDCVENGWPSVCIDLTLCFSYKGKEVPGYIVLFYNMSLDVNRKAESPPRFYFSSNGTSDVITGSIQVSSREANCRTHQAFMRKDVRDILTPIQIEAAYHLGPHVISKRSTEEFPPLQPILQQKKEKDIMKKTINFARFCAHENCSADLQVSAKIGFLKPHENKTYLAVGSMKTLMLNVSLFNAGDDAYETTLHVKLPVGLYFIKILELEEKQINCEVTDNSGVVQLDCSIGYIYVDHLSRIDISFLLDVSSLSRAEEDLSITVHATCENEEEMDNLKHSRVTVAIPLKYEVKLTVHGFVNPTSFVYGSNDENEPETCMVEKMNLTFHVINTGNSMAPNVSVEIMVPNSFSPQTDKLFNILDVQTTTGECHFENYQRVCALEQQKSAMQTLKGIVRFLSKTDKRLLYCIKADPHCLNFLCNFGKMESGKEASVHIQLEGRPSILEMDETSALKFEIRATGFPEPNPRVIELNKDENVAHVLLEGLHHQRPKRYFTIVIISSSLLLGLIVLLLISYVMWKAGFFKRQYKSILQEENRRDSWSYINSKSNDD
α4β1 integrin, sequence (P05556 21-798): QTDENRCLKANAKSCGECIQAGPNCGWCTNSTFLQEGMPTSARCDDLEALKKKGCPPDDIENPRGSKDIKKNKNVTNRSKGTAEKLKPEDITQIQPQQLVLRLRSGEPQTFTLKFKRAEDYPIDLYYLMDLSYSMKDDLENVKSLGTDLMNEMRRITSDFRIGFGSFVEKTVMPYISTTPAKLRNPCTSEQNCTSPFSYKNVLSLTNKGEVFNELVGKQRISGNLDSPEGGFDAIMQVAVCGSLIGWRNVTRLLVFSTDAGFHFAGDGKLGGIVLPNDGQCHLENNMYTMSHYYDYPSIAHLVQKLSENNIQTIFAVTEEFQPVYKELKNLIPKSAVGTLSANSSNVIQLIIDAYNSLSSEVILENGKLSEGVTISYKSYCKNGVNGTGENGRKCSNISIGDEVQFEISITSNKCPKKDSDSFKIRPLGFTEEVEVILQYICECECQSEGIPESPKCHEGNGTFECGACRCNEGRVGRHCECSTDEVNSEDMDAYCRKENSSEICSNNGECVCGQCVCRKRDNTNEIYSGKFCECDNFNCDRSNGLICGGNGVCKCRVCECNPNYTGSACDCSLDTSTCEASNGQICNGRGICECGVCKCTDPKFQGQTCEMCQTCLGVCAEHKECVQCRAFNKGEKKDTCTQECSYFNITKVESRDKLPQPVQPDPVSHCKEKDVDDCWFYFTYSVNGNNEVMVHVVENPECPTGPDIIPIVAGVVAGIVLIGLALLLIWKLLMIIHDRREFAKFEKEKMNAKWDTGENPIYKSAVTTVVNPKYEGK
α4β7 integrin, sequence (P13612 34-1032): as the sequence (P13612 34-1032) above
α4β7 integrin, sequence (P26010 20-798): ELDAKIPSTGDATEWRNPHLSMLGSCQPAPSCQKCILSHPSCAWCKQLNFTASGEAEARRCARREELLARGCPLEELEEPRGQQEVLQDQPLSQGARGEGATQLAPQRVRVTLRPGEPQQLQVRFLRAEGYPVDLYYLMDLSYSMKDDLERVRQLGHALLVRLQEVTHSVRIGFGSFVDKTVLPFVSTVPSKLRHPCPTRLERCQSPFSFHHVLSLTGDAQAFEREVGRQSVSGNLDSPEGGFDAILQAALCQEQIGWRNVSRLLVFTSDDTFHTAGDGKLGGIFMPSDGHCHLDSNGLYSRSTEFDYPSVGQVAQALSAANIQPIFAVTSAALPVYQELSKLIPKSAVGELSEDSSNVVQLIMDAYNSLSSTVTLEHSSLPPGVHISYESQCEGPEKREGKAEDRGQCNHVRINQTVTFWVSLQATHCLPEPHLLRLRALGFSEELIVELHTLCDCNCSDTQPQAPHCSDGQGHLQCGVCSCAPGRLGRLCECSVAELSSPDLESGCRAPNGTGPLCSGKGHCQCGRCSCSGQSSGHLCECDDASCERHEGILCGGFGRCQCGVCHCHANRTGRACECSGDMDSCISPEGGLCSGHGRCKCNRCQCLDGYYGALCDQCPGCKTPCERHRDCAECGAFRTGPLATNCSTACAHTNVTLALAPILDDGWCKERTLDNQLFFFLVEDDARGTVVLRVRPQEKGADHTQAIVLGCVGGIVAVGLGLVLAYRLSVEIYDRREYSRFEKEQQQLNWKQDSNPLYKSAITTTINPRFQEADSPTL

Turning to `Cn1c(=O)c(-c2cccc3c(C[C@H](NC(=O)C4(C(F)(F)F)CCN([C@H](C5CC5)C(F)(F)F)CC4)C(=O)O)cccc23)c(C(F)(F)F)c2ccccc21` [Compound 485], the half-maximal inhibitory concentration (IC50) at α4β7 integrin and on α4β1 integrin was over 1000 nM each time.

Regarding `Cn1c(=O)c(-c2cccc3c(C[C@H](NC(=O)C4(C(F)(F)F)CCN(C5(C(F)(F)F)CC5)CC4)C(=O)O)cccc23)c(C(F)(F)F)c2ccccc21` [Compound 486], the IC50 at α4β7 integrin and at α4β1 integrin was over 1000 nM each time.

Consider `Cn1c(=O)c(-c2cccc3c(C[C@H](NC(=O)c4c(F)cccc4CN4CCC(C)(C)C4)C(=O)O)cccc23)c(C(F)(F)F)c2ccccc21` [Compound 487], for which the figures for the IC50 at α4β7 integrin and at α4β1 integrin were 10 to 100 nM and over 1000 nM, respectively.

`Cn1c(=O)c(-c2cccc3c(C[C@H](NC(=O)C4(C(F)(F)F)CCN(C(C)(C)C(F)(F)F)CC4)C(=O)O)cccc23)c(C(F)(F)F)c2ccccc21` [Compound 489]: the half-inhibitory concentration (IC50) – broadly, the concentration at which inhibition is half-maximal – at α4β7 integrin is 100 to 1000 nM; on α4β1 integrin, over 1000 nM.

On to `Cn1c(=O)c(-c2cccc3c(C[C@H](NC(=O)C4(C(F)(F)F)CCN(C(C(F)(F)F)C(F)(F)F)CC4)C(=O)O)cccc23)c(C(F)(F)F)c2ccccc21` [Compound 490], for which the IC50 at α4β7 integrin and on α4β1 integrin was over 1000 nM in each case.

Take `Cn1c(=O)c(-c2cccc3c(C[C@H](NC(=O)C4(C(F)(F)F)CCN(C5(C(F)(F)F)COC5)CC4)C(=O)O)cccc23)c(C(F)(F)F)c2ccccc21` [Compound 491]: the IC50 at α4β7 integrin was 100 to 1000 nM; at α4β1 integrin it was over 1000 nM.

With `Cn1c(=O)c(-c2cccc3c(C[C@H](NC(=O)C4(C(F)(F)F)CCNCC4)C(=O)O)cccc23)c(C(F)(F)F)c2ccccc21` [Compound 492], the results for the half-maximal inhibitory concentration (IC50) on α4β7 integrin and at α4β1 integrin were 10 to 100 nM and over 1000 nM, respectively.

For `Cn1c(=O)c(-c2cccc3c(C[C@H](NC(=O)C4(C(F)(F)F)CCN(C5CC(F)(F)C5)CC4)C(=O)O)cccc23)c(C(F)(F)F)c2ccccc21` [Compound 493], the IC50 on α4β7 integrin was 10 to 100 nM; at α4β1 integrin, 100 to 1000 nM.

Regarding `Cn1c(=O)c(-c2cccc3c(C[C@H](NC(=O)C4(C(F)(F)F)CCN([C@@H]5CCC(F)(F)C5)CC4)C(=O)O)cccc23)c(C(F)(F)F)c2ccccc21` [Compound 494], the figures for the IC50 on α4β7 integrin and at α4β1 integrin were 10 to 100 nM and 100 to 1000 nM, respectively.

Regarding `CCCS(=O)(=O)Nc1ccc(F)c(C(=O)N[C@@H](Cc2cccc3c(-c4c(C(F)(F)F)c5ccccc5n(C)c4=O)cccc23)C(=O)O)c1F` [Compound 496], the IC50 at α4β7 integrin is 10 to 100 nM; on α4β1 integrin, over 1000 nM.

For the compound `O=C(O)[C@H](Cc1cccc2c(-c3nccc4ccccc34)cccc12)NC(=O)C1(C(F)(F)F)CCN(C2COC2)CC1` [Compound 497], the IC50 is under 10 nM at α4β7 integrin and over 1000 nM on α4β1 integrin.

Regarding `CCOCc1cc(OC)c(-c2cccc3c(C[C@H](NC(=O)C4(C(F)(F)F)CCN(C5COC5)CC4)C(=O)O)cccc23)c(OC)c1` [Compound 498], the concentration for half-maximal inhibition (IC50) on α4β7 integrin is under 10 nM; on α4β1 integrin, 100 to 1000 nM.

On to `Cn1c(C(F)(F)F)cc(C(F)(F)F)c(-c2cccc3c(C[C@H](NC(=O)C4(C(F)(F)F)CCN(C5COC5)CC4)C(=O)O)cccc23)c1=O` [Compound 499], for which the IC50 on α4β7 integrin was under 10 nM; on α4β1 integrin, 100 to 1000 nM.

Turning to `O=C(N[C@@H](Cc1cccc2c(-c3cccc4cccnc34)cccc12)C(=O)O)c1c(F)cccc1F` [Compound 500], the IC50 on α4β7 integrin and at α4β1 integrin was over 1000 nM in each case.

For the compound `COc1ccc2cccnc2c1-c1cccc2c(C[C@H](NC(=O)c3c(F)cccc3F)C(=O)O)cccc12` [Compound 501], the values for the IC50 at α4β7 integrin and on α4β1 integrin were 100 to 1000 nM and over 1000 nM, respectively.

Take `COCCN1CCC(C(=O)N[C@@H](Cc2cccc3c(-c4c(C(F)(F)F)c5ccccc5n(C)c4=O)cccc23)C(=O)O)(C(F)(F)F)CC1` [Compound 502]: the IC50 is under 10 nM on α4β7 integrin and 100 to 1000 nM on α4β1 integrin.

With `CCOCCN1CCC(C(=O)N[C@@H](Cc2cccc3c(-c4c(C(F)(F)F)c5ccccc5n(C)c4=O)cccc23)C(=O)O)(C(F)(F)F)CC1` [Compound 503], the figures for the IC50 at α4β7 integrin and at α4β1 integrin were 10 to 100 nM and 100 to 1000 nM, respectively.

Turning to `Cn1c(=O)c(-c2cccc3c(C[C@H](NC(=O)C4(C(F)(F)F)CCN(C5CCOCC5)CC4)C(=O)O)cccc23)c(C(F)(F)F)c2ccccc21` [Compound 504], the IC50 on α4β7 integrin was 10 to 100 nM; on α4β1 integrin, over 1000 nM.

Turning to `Cn1c(=O)c(-c2cccc3c(C[C@H](NC(=O)C4(C(F)(F)F)CCN(C5CCS(=O)(=O)CC5)CC4)C(=O)O)cccc23)c(C(F)(F)F)c2ccccc21` [Compound 505], the IC50 is 10 to 100 nM on α4β7 integrin and over 1000 nM at α4β1 integrin.

With `Cn1c(=O)c(-c2cccc3c(C[C@H](NC(=O)C4(C)CN(C5CCOC(C(F)(F)F)C5)C4)C(=O)O)cccc23)c(C(F)(F)F)c2ccccc21` (stereo partly shown) [Compound 506], the figures for the IC50 at α4β7 integrin and on α4β1 integrin were 100 to 1000 nM and over 1000 nM, respectively.

Regarding `Cn1c(=O)c(-c2cccc3c(C[C@H](NC(=O)C4(C(F)(F)F)CCN(C5COC(C(F)(F)F)C5)CC4)C(=O)O)cccc23)c(C(F)(F)F)c2ccccc21` (stereo partly shown) [Compound 507], the IC50 at α4β7 integrin was 100 to 1000 nM; on α4β1 integrin, over 1000 nM.

As to `Cn1c(=O)c(-c2cccc3c(C[C@H](NC(=O)C4(C(F)(F)F)CCN(C5CCOC5(C)C)CC4)C(=O)O)cccc23)c(C(F)(F)F)c2ccccc21` (stereo partly shown) [Compound 508], the half-maximal inhibitory concentration (IC50) at α4β7 integrin lay in the range of 10 to 100 nM; at α4β1 integrin it was 100 to 1000 nM.

As to `CC1OCCC1N1CCC(C(=O)N[C@@H](Cc2cccc3c(-c4c(C(F)(F)F)c5ccccc5n(C)c4=O)cccc23)C(=O)O)(C(F)(F)F)CC1` (stereo partly shown) [Compound 509], the figures for the IC50 on α4β7 integrin and at α4β1 integrin were under 10 nM and 100 to 1000 nM, respectively.

On to `CC1OCC1N1CCC(C(=O)N[C@@H](Cc2cccc3c(-c4c(C(F)(F)F)c5ccccc5n(C)c4=O)cccc23)C(=O)O)(C(F)(F)F)CC1` (stereo partly shown) [Compound 510], for which the values for the IC50 at α4β7 integrin and at α4β1 integrin were under 10 nM and 100 to 1000 nM, respectively.

In the case of `Cn1c(=O)c(-c2cccc3c(C[C@H](NC(=O)C4(C(F)(F)F)CCN(C5CCOCC5C(F)(F)F)CC4)C(=O)O)cccc23)c(C(F)(F)F)c2ccccc21` (stereo partly shown) [Compound 511], the IC50 on α4β7 integrin was 10 to 100 nM; at α4β1 integrin, over 1000 nM.

Take `Cn1c(=O)c(-c2cccc3c(C[C@H](NC(=O)C4(C(F)(F)F)CCN(C5COCC5(F)F)CC4)C(=O)O)cccc23)c(C(F)(F)F)c2ccccc21` (stereo partly shown) [Compound 512]: the IC50 is under 10 nM on α4β7 integrin and 100 to 1000 nM at α4β1 integrin.

Values taken from patent publication US20250313535A1, “ALPHA 4 BETA 7 INTEGRIN MODULATORS AND USES THEREOF” (DICE MOLECULES SV, INC., priority 2022, published 2025).
